Data: patent publication US10087172B2, “Compounds and their methods of use” (AGIOS PHARMACEUTICALS, INC, priority 2012, dated 2018)

Target: T1, glutaminase (GAC) (Homo sapiens, UniProt O94925)
T1 sequence (O94925 55-598 isoform O94925-3 limits assumed): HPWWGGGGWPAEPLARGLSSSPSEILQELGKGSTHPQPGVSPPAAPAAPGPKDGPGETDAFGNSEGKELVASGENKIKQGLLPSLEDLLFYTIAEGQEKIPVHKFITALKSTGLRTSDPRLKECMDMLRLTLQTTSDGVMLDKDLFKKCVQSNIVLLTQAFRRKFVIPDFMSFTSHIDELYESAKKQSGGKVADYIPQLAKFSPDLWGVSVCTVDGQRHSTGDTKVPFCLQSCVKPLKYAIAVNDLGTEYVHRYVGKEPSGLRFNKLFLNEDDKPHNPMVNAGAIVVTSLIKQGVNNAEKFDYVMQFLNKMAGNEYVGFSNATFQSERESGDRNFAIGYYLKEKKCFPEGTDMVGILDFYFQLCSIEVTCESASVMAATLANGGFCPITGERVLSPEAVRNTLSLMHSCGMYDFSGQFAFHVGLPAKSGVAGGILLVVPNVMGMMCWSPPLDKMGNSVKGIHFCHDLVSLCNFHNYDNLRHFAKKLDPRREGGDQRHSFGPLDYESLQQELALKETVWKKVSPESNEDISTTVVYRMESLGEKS
Assay: Glutaminase (GAC) coupled endpoint enzymatic assay (glutamate dehydrogenase/diaphorase/resazurin, Ex544/Em590)
Type: biochemical
Settings: inhibition of glutaminase, tested in an assay of Example A or Example B; class symbols A-E
Source text: In certain embodiments, exemplary compounds of Formula I include the compounds described in Table 1 and in the Examples. A compound described herein may be tested for its ability to inhibit glutaminase, e.g., by an assay as described in the Examples. For simplicity, the inhibition activity of these compounds is represented as an IC50 tested in an assay of Example A or Example B in Table 1. […] “N/A” refers to compounds wherein the IC50 is unavailable.
In this example, the enzymatic activity of glutaminase is measured through a coupled endpoint assay. Glutamine and phosphate are supplied to GAC at a concentration equal to Km and AC50, respectively, and GAC concentration is adjusted to give a linear reaction for 60 minutes. The glutamate produced is converted to 2-OG by a kinetic excess of glutamate dehydrogenase. This second step is configured for 2× Km for NAD, since excess NAD is inhibitory. However, a kinetic excess of the third coupling enzyme, diaphorase, recycles NAD from NADH to keep the NAD concentration constant during the timecourse of the assay. Diaphorase, also supplied in kinetic excess, oxidizes NADH produced by GDH back to NAD with the concomitant reduction of rezasurin to the highly fluorescent resorufin. Resorufin in measured after the assay is stopped with SDS by Ex544/Em590. A reduction in the signal indicates inhibition of some component of the coupled enzyme system. Prospective hits are counterscreened against GDH/diaphorase alone to remove hits to the coupling enzyme system in a second assay.
2. Buffers 2× Buffer (300 mM NaCl, 100 mM HEPES pH 8.5, 0.1% BSA, 0.5 mM EDTA, 100 mM sodium phosphate pH 8.5) 5× Substrate Mix (1× Buffer final concentration, with 13 mM glutamine, 100 μM resazurin, 50 μg/ml diaphorase) 1.2× Enzyme Mix (1× Buffer final concentration, with 0.875 μg/ml GAC, 1.56 mM NAD, 6.25 units/ml GDH) Stop Mix (6% SDS in ddH2O) Reaction Procedure 1. Add 1 μl compound in 100% DMSO 2. Add 40 μl of Enzyme Mix and incubate for 60 minute at room temperature 3. Add 10 μl of Substrate Mix to start reaction 4. Stop reaction with 25 μl of 6% SDS and read Ex544 Em 590

Row | SMILES | IC50 [nM]
1 | CC(C)Oc1cccc(CC(=O)Nc2nnc([C@H]3CCC[C@H](c4nnc(NC(=O)Cc5cccc(OC(C)C)c5)s4)C3)s2)c1 [Compound 91, N,N′-(5,5′-((1S,3S)-cyclohexane-1,3-diyl)bis(1,3,4-thiadiazole-5,2-diyl))bis(2-(3-isopropoxyphenyl)acetamide)] | 100 to 500
2 | CC(C)Oc1ccccc1CC(=O)Nc1nnc([C@H]2CCC[C@H](c3nnc(NC(=O)Cc4ccccc4OC(C)C)s3)C2)s1 [Compound 92, N,N′-(5,5′-((1S,3S)-cyclohexane-1,3-diyl)bis(1,3,4-thiadiazole-5,2-diyl))bis(2-(2-isopropoxyphenyl)acetamide)] | 100 to 500
3 | O=C(Cc1nccs1)Nc1nnc([C@H]2CCC[C@H](c3nnc(NC(=O)Cc4nccs4)s3)C2)s1 [Compound 100] | < 100
4 | CC(=O)Nc1cccc(CC(=O)Nc2nnc([C@H]3CCC[C@H](c4nnc(NC(=O)Cc5cccc(NC(C)=O)n5)s4)C3)s2)n1 [Compound 104, N,N′-(5,5′-((1S,3S)-cyclohexane-1,3-diyl)bis(1,3,4-thiadiazole-5,2-diyl))bis(2-(6-acetamidopyridin-2-yl)acetamide)] | < 100
5 | Cc1cccc(CC(=O)Nc2nnc([C@H]3CCC[C@H](c4nnc(NC(=O)Cc5cccc(C)c5)s4)C3)s2)c1 [Compound 111, N,N′-(5,5′-((1S,3S)-cyclohexane-1,3-diyl)bis(1,3,4-thiadiazole-5,2-diyl))bis(2-m-tolylacetamide)] | 100 to 500
6 | COc1cccc(CC(=O)Nc2nnc([C@H]3CCC[C@H](c4nnc(NC(=O)Cc5cccc(OC)c5OC)s4)C3)s2)c1OC [Compound 112, N,N′-(5,5′-((1S,3S)-cyclohexane-1,3-diyl)bis(1,3,4-thiadiazole-5,2-diyl))bis(2-(2,3-dimethoxyphenyl)acetamide)] | < 100
7 | O=C(Cc1ccccn1)Nc1nnc([C@H]2CC[C@H](c3nnc(NC(=O)Cc4ccccn4)s3)C2)s1 [Compound 309] | < 100
8 | O=C(Cc1csc(N2CC(F)(F)C2)n1)Nc1nnc([C@H]2CCC[C@H](c3nnc(NC(=O)Cc4csc(N5CC(F)(F)C5)n4)s3)C2)s1 [Compound 336] | < 100
9 | O=C(Cc1ccnc(N2CC(F)(F)C2)n1)Nc1nnc([C@H]2CCC[C@H](c3nnc(NC(=O)Cc4ccnc(N5CC(F)(F)C5)n4)s3)C2)s1 [Compound 346, N,N′-(5,5′-((1R,3R)-cyclohexane-1,3-diyl)bis(1,3,4-thiadiazole-5,2-diyl))bis(2-(2-(3,3-difluoroazetidin-1-yl)pyrimidin-4-yl)acetamide)] | < 100
10 | COc1ccc(CC(=O)Nc2nnc([C@H]3CC[C@H](c4nnc(NC(=O)Cc5ccc(OC)cn5)s4)C3)s2)nc1 [Compound 347, N,N′-(5,5′-((1S,3S)-cyclopentane-1,3-diyl)bis(1,3,4-thiadiazole-5,2-diyl))bis(2-(5-methoxypyridin-2-yl)acetamide)] | < 100
11 | O=C(Cc1cccc(N2CC(F)C2)c1)Nc1nnc([C@H]2CCC[C@H](c3nnc(NC(=O)Cc4cccc(N5CC(F)C5)c4)s3)C2)s1 [Compound 348] | < 100
12 | O=C(Cc1cccc(N2CC(F)(F)C2)n1)Nc1nnc([C@H]2CCC[C@H](c3nnc(NC(=O)CC4CC4)s3)C2)s1 [Compound 349, 2-cyclopropyl-N-(5-((1S,3S)-3-(5-(2-(6-(3,3-difluoroazetidin-1-yl)pyridin-2-yl)acetamido)-1,3,4-thiadiazol-2-yl)cyclohexyl)-1,3,4-thiadiazol-2-yl)acetamide] | < 100
13 | O=C(Cc1cccc(CO)c1)Nc1nnc([C@H]2CCC[C@H](c3nnc(NC(=O)Cc4cccc(CO)c4)s3)C2)s1 [Compound 351] | < 100

Further lines, results first:

Row | IC50 [nM] | SMILES
14 | < 100 | COCCOc1ccnc(CC(=O)Nc2nnc([C@H]3CCC[C@H](c4nnc(NC(=O)Cc5cc(OCCOC)ccn5)s4)C3)s2)c1 [Compound 353]
15 | < 100 | O=C(Cc1cncc(N2CC(F)(F)C2)n1)Nc1nnc([C@H]2CCC[C@H](c3nnc(NC(=O)Cc4cncc(N5CC(F)(F)C5)n4)s3)C2)s1 [Compound 354]
16 | < 100 | N#Cc1cccc(CC(=O)Nc2nnc([C@H]3CCC[C@H](c4nnc(NC(=O)Cc5cccc(C6CCNCC6)c5)s4)C3)s2)c1 [Compound 355]
17 | < 100 | O=C(Cc1cc(OC(F)F)ccn1)Nc1nnc([C@H]2CCC[C@H](c3nnc(NC(=O)Cc4cc(OC(F)F)ccn4)s3)C2)s1 [Compound 356, N,N′-(5,5′-((1S,3S)-cyclohexane-1,3-diyl)bis(1,3,4-thiadiazole-5,2-diyl))bis(2-(4-(difluoromethoxy)pyridin-2-yl)acetamide)]
18 | < 100 | O=C(Cc1ccc(N2CC(F)C2)cn1)Nc1nnc([C@H]2CCC[C@H](c3nnc(NC(=O)Cc4ccc(N5CC(F)C5)cn4)s3)C2)s1 [Compound 357]
19 | < 100 | COc1ccc(CC(=O)Nc2nnc([C@H]3CC[C@H](c4nnc(NC(=O)Cc5cccc(N6CC(F)(F)C6)n5)s4)C3)s2)cn1 [Compound 358]
20 | < 100 | COc1ccc(CC(=O)Nc2nnc([C@H]3CCC[C@H](c4nnc(NC(=O)Cc5cccc(N6CC(F)(F)C6)n5)s4)C3)s2)cn1 [Compound 359]
21 | < 100 | N#Cc1cccc(CC(=O)Nc2nnc([C@H]3CCC[C@H](c4nnc(NC(=O)Cc5cccc(CN)c5)s4)C3)s2)c1 [Compound 361]
22 | < 100 | CN1CCC(c2cccc(CC(=O)Nc3nnc([C@H]4CCC[C@H](c5nnc(NC(=O)Cc6cccc(C7CCN(C)CC7)c6)s5)C4)s3)c2)CC1 [Compound 362, N,N′-(5,5′-((1S,3S)-cyclohexane-1,3-diyl)bis(1,3,4-thiadiazole-5,2-diyl))bis(2-(3-(1-methylpiperidin-4-yl)phenyl)acetamide)]
23 | < 100 | O=C(Cc1ccc(N2CC(F)C2)cn1)Nc1nnc([C@H]2CC[C@H](c3nnc(NC(=O)Cc4ccc(N5CC(F)C5)cn4)s3)C2)s1 [Compound 363]
24 | < 100 | O=C(Cc1cccc(OC(F)(F)F)c1)Nc1nnc([C@H]2CCC[C@H](c3nnc(NC(=O)Cc4ccccn4)s3)C2)s1 [Compound 364, 2-(pyridin-2-yl)-N-(5-((1S,3S)-3-(5-(2-(3-(trifluoromethoxy)phenyl)acetamido)-1,3,4-thiadiazol-2-yl)cyclohexyl)-1,3,4-thiadiazol-2-yl)acetamide]
25 | < 100 | O=C(Cc1cccc(OC(F)(F)F)c1)Nc1nnc([C@H]2CCC[C@H](c3nnc(NC(=O)[C@H](O)c4ccccc4)s3)C2)s1 [Compound 365, (R)-2-hydroxy-2-phenyl-N-(5-((1S,3S)-3-(5-(2-(3-(trifluoromethoxy)phenyl)acetamido)-1,3,4-thiadiazol-2-yl)cyclohexyl)-1,3,4-thiadiazol-2-yl)acetamide]
26 | < 100 | N#Cc1cccc(CC(=O)Nc2nnc([C@H]3CCC[C@H](c4nnc(NC(=O)Cc5cccc(N6CC(N)C6)n5)s4)C3)s2)c1 [Compound 366, 2-(6-(3-aminoazetidin-1-yl)pyridin-2-yl)-N-(5-((1S,3S)-3-(5-(2-(3-cyanophenyl)acetamido)-1,3,4-thiadiazol-2-yl)cyclohexyl)-1,3,4-thiadiazol-2-yl)acetamide]
27 | < 100 | N#Cc1cccc(CC(=O)Nc2nnc([C@H]3CCC[C@H](c4nnc(NC(=O)Cc5cccc(C6CCCNC6)c5)s4)C3)s2)c1 (stereo partly drawn) [Compound 367, 2-(3-cyanophenyl)-N-(5-((1S,3S)-3-(5-(2-(3-(piperidin-3-yl)phenyl)acetamido)-1,3,4-thiadiazol-2-yl)cyclohexyl)-1,3,4-thiadiazol-2-yl)acetamide]
